Measured values published in patent publication US9840478B2 (MERCK SHARP & DOHME CORP., priority 2013, dated 2017).

test system: HIV-1 (H9IIIB strain); assay: Cell-based HIV infection assay using a reporter (Cell-Based), MT4-GFP cells; details: Human immunodeficiency virus 1, MT4-GFP cells infected with HIV-1 H9IIIB; 50% normal human serum; mean of at least two independent experiments; read-out: Cell-based IP
Procedure, shortened: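 IC50 from 4-parameter dose-response of % viral growth inhibition, using the 48 h/24 h infected-cell ratio scaled between DMSO and a protease/integrase/NNRTI triple-drug control. Assay used MT4 cells with HIV-LTR-GFP reporter, pre-infected 24 h with HIV-1 H9IIIB, in 50% normal human serum.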

Compound	IC50 [nM]
C[C@H]1CNC[C@H](CCc2c(F)cccc2NC(=O)[C@@H](N)[C@@H](c2ccc(F)cc2)C2CCOCC2)N1S(=O)(=O)C1CC1 [Example 114, (βR)-N-(2-{2-[(2S,6S)-1-(cyclopropylsulfonyl)-6-methylpiperazin-2-yl]ethyl}-3-fluorophenyl)-4-fluoro-β-(tetrahydro-2H-pyran-4-yl)-L-phenylalaninamide]	100
COC(=O)N[C@H](C(=O)Nc1cccc(F)c1CC[C@H]1CNC[C@H](C)N1S(=O)(=O)C1CC1)[C@@H](c1ccc(F)cc1)C1CCOCC1 [Example 115, (βR)-N-(2-{2-[(2S,6S)-1-(cyclopropylsulfonyl)-6-methylpiperazin-2-yl]ethyl}-3-fluorophenyl)-4-fluoro-Nα-(methoxycarbonyl)-β-(tetrahydro-2H-pyran-4-yl)-L-phenylalaninamide]	45
C[C@@H]1CNC[C@H](CCc2c(F)cccc2NC(=O)[C@@H](N)[C@@H](c2ccc(Cl)cc2)C2CCOCC2)N1S(=O)(=O)c1ccccc1 [Example 116, (βR)-4-chloro-N-(3-fluoro-2-{2-[(2S,6R)-6-methyl-1-(phenylsulfonyl)piperazin-2-yl]ethyl}phenyl)-β-(tetrahydro-2H-pyran-4-yl)-L-phenylalaninamide]	24
COC(=O)N[C@H](C(=O)Nc1cccc(F)c1CC[C@H]1CNC[C@@H](C)N1S(=O)(=O)c1ccccc1)[C@@H](c1ccc(Cl)cc1)C1CCOCC1 [Example 117, (βR)-4-chloro-N-(3-fluoro-2-{2-[(2S,6R)-6-methyl-1-(phenylsulfonyl)piperazin-2-yl]ethyl}phenyl)-Nα-(methoxycarbonyl)-β-(tetrahydro-2H-pyran-4-yl)-L-phenylalaninamide]	9.3
COc1ccc([C@H](c2ccc(Cl)cc2)[C@H](N)C(=O)Nc2cccc(F)c2CC[C@H]2CNC[C@H](C)N2S(=O)(=O)c2ccccc2)cn1 [Example 118, (βS)-4-chloro-N-(3-fluoro-2-{2-[(2S,6S)-6-methyl-1-(phenylsulfonyl)piperazin-2-yl]ethyl}phenyl)-β-(6-methoxypyridin-3-yl)-L-phenylalaninamide]	12
COC(=O)N[C@H](C(=O)Nc1cccc(F)c1CC[C@H]1CNC[C@H](C)N1S(=O)(=O)c1ccccc1)[C@@H](c1ccc(Cl)cc1)c1ccc(OC)nc1 [Example 119, (βS)-4-chloro-N-(3-fluoro-2-{2-[(2S,6S)-6-methyl-1-(phenylsulfonyl)piperazin-2-yl]ethyl}phenyl)-Nα-(methoxycarbonyl)-β-(6-methoxypyridin-3-yl)-L-phenylalaninamide]	9.1
COC(=O)N[C@H](C(=O)Nc1cccc(F)c1CC[C@H]1CNC[C@@H](C)N1S(=O)(=O)c1ccccc1)[C@@H](c1ccc(Cl)cc1)c1ccc(OC)nc1 [Example 120, (βS)-4-chloro-N-(3-fluoro-2-{2-[(2S,6R)-6-methyl-1-(phenylsulfonyl)piperazin-2-yl]ethyl}phenyl)-Nα-(methoxycarbonyl)-β-(6-methoxypyridin-3-yl)-L-phenylalaninamide]	19
C[C@H]1CNC[C@H](CCc2c(F)cccc2NC(=O)[C@@H](N)[C@@H](c2ccc(Cl)cc2)C2CCOCC2)N1S(C)(=O)=O [Example 121, (βR)-4-chloro-N-(3-fluoro-2-{2-[(2S,6S)-6-methyl-1-(methylsulfonyl)piperazin-2-yl]ethyl}phenyl)-β-(tetrahydro-2H-pyran-4-yl)-L-phenylalaninamide]	72
CC(C)[C@H](c1ccc(Cl)cc1)[C@H](N)C(=O)Nc1cccc(F)c1CC[C@H]1CNC[C@H](C)N1S(C)(=O)=O [Example 122, (βR)-4-chloro-N-(3-fluoro-2-{2-[(2S,6S)-6-methyl-1-(methylsulfonyl)piperazin-2-yl]ethyl}phenyl)-β-(1-methylethyl)-L-phenylalaninamide]	360
COC(=O)N[C@H](C(=O)Nc1cccc(F)c1CC[C@H]1CNC[C@H](C)N1S(C)(=O)=O)[C@@H](c1ccc(Cl)cc1)C(C)C [Example 123, (βR)-4-chloro-N-(3-fluoro-2-{2-[(2S,6S)-6-methyl-1-(methylsulfonyl)piperazin-2-yl]ethyl}phenyl)-Nα-(methoxycarbonyl)-β-(1-methylethyl)-L-phenylalaninamide]	62
COc1ccc(S(=O)(=O)N2[C@@H](CCc3c(F)cccc3NC(=O)[C@@H](N)[C@@H](c3ccc(Cl)cc3)C(C)C)CNC[C@@H]2C)cc1 [Example 124, (βR)-4-chloro-N-[3-fluoro-2-(2-{(2S,6S)-1-[(4-methoxyphenyl)sulfonyl]-6-methylpiperazin-2-yl}ethyl)phenyl]-β-(1-methylethyl)-L-phenylalaninamide]	63
COC(=O)N[C@H](C(=O)Nc1cccc(F)c1CC[C@H]1CNC[C@H](C)N1S(=O)(=O)c1ccc(OC)cc1)[C@@H](c1ccc(Cl)cc1)C(C)C [Example 125, (βR)-4-chloro-N-[3-fluoro-2-(2-{(2S,6S)-1-[(4-methoxyphenyl)sulfonyl]-6-methylpiperazin-2-yl}ethyl)phenyl]-Nα-(methoxycarbonyl)-β-(1-methylethyl)-L-phenylalaninamide]	18
CC(C)[C@H](c1ccc(Cl)cc1)[C@H](N)C(=O)Nc1cncc(F)c1CC[C@H]1CNC[C@H](C)N1S(=O)(=O)c1ccccc1 [Example 126, (βR)-4-chloro-N-(5-fluoro-4-{2-[(2S,6S)-6-methyl-1-(phenylsulfonyl)piperazin-2-yl]ethyl}pyridin-3-yl)-β-(1-methylethyl)-L-phenylalaninamide]	16
CC(C)[C@H](c1ccc(Cl)cc1)[C@H](N)C(=O)Nc1cccc(F)c1CC[C@H]1CNC[C@H](C)N1S(=O)(=O)C1CC1 [Example 127, (βR)-4-chloro-N-(2-{2-[(2S,6S)-1-(cyclopropylsulfonyl)-6-methylpiperazin-2-yl]ethyl}-3-fluorophenyl)-β-(1-methylethyl)-L-phenylalaninamide]	300
CC(C)[C@H](c1ccc(Cl)cc1)[C@H](N)C(=O)Nc1cccc(F)c1CC[C@H]1CNC[C@@H](C)N1S(=O)(=O)C1CC1 [Example 128, (βR)-4-chloro-N-(2-{2-[(2S,6R)-1-(cyclopropylsulfonyl)-6-methylpiperazin-2-yl]ethyl}-3-fluorophenyl)-β-(1-methylethyl)-L-phenylalaninamide]	610
C[C@H]1CNC[C@H](CCc2c(F)cccc2NC(=O)[C@@H](N)[C@@H](c2ccc(F)cc2)C2CCOCC2)N1S(C)(=O)=O [Example 129, (βR)-4-fluoro-N-(3-fluoro-2-{2-[(2S,6S)-6-methyl-1-(methylsulfonyl)piperazin-2-yl]ethyl}phenyl)-β-(tetrahydro-2H-pyran-4-yl)-L-phenylalaninamide]	210
COC(=O)N[C@H](C(=O)Nc1cccc(F)c1CC[C@H]1CNC[C@H](C)N1S(C)(=O)=O)[C@@H](c1ccc(F)cc1)C1CCOCC1 [Example 130, (βR)-4-fluoro-N-(3-fluoro-2-{2-[(2S,6S)-6-methyl-1-(methylsulfonyl)piperazin-2-yl]ethyl}phenyl)-Nα-(methoxycarbonyl)-β-(tetrahydro-2H-pyran-4-yl)-L-phenylalaninamide]	55
C[C@H]1CNC[C@H](CCc2c(F)cccc2NC(=O)[C@@H](N)[C@@H](c2ccc(Cl)cc2)C2CCOCC2)N1S(=O)(=O)c1ccccc1 [Example 131, (βR)-4-chloro-N-(3-fluoro-2-{2-[(2S,6S)-6-methyl-1-(phenylsulfonyl)piperazin-2-yl]ethyl}phenyl)-β-(tetrahydro-2H-pyran-4-yl)-L-phenylalaninamide]	17
COC(=O)N[C@H](C(=O)Nc1cccc(F)c1CC[C@H]1CNC[C@H](C)N1S(=O)(=O)c1ccccc1)[C@@H](c1ccc(Cl)cc1)C1CCOCC1 [Example 132, (βR)-4-chloro-N-(3-fluoro-2-{2-[(2S,6S)-6-methyl-1-(phenylsulfonyl)piperazin-2-yl]ethyl}phenyl)-Nα-(methoxycarbonyl)-β-(tetrahydro-2H-pyran-4-yl)-L-phenylalaninamide]	11
C[C@@H]1CNC[C@H](CCc2c(F)cccc2NC(=O)[C@@H](N)C(c2cccc(F)c2)c2cccc(F)c2)N1S(=O)(=O)c1ccccc1 [Example 133, 3-fluoro-N-(3-fluoro-2-{2-[(2S,6R)-6-methyl-1-(phenylsulfonyl)piperazin-2-yl]ethyl}phenyl)-β-(3-fluorophenyl)-L-phenylalaninamide]	55
COC(=O)N[C@H](C(=O)Nc1cccc(F)c1CC[C@H]1CNC[C@@H](C)N1S(=O)(=O)c1ccccc1)C(c1cccc(F)c1)c1cccc(F)c1 [Example 134, 3-fluoro-N-(3-fluoro-2-{2-[(2S,6R)-6-methyl-1-(phenylsulfonyl)piperazin-2-yl]ethyl}phenyl)-β-(3-fluorophenyl)-Nα-(methoxycarbonyl)-L-phenylalaninamide]	63
C[C@@H]1CNC[C@H](CCc2c(F)cncc2NC(=O)[C@@H](N)[C@@H](c2ccc(Cl)cc2)c2cccc(F)c2)N1S(=O)(=O)c1ccccc1 [Example 135, (βS)-4-chloro-N-(5-fluoro-4-{2-[(2S,6R)-6-methyl-1-(phenylsulfonyl)piperazin-2-yl]ethyl}pyridin-3-yl)-β-(3-fluorophenyl)-L-phenylalaninamide]	23
COC(=O)N[C@H](C(=O)Nc1cncc(F)c1CC[C@H]1CNC[C@H](C)N1S(=O)(=O)c1ccc(OC)cc1)[C@@H](c1ccc(Cl)cc1)C1CCOCC1 [Example 136, (βR)-4-chloro-N-[5-fluoro-4-(2-{(2S,6S)-1-[(4-methoxyphenyl)sulfonyl]-6-methylpiperazin-2-yl}ethyl)pyridin-3-yl]-Nα-(methoxycarbonyl)-β-(tetrahydro-2H-pyran-4-yl)-L-phenylalaninamide]	10
C[C@H]1CNC[C@H](CCc2c(F)cccc2NC(=O)[C@@H](N)C(c2cccc(F)c2)c2cccc(F)c2)N1S(=O)(=O)c1ccccc1Cl [Example 137, N-[2-(2-{(2S,6S)-1-[(2-chlorophenyl)sulfonyl]-6-methylpiperazin-2-yl}ethyl)-3-fluorophenyl]-3-fluoro-β-(3-fluorophenyl)-L-phenylalaninamide]	240
